# Data published in patent publication US10111874B2, “Combination therapies for treatment of cancer” (Araxes Pharma LLC, priority 2014, dated 2018).
# Molecular target: T1, KRAS G12C 1-169, his-tagged protein, GDP-loaded (Homo sapiens, UniProt P01116, G12C)
# T1 construct: KRAS G12C 1-169, his-tagged protein, GDP-loaded
# Assay: Biochemical assay: covalent binding to KRAS G12C analyzed by mass spectrometry
# Details: compounds 1-47, measured at 24 h
# Procedure: Compounds were tested for activity as follows:
# Compounds were diluted to 50× final test concentration in DMSO in 96-well storage plates. […] Reactions were mixed carefully and thoroughly by pipetting up/down with a 200 μl multi-channel pipettor. […] 5 μl of 2% formic acid (Fisher cat#A117) in DI H2O was then added to each well followed by mixing with a pipette. The plate was then resealed with aluminum seal and stored on dry ice until analyzed as described below.
# The above described assays were analyzed by mass spectrometry according to the following procedure:
# The MS instrument is set to positive polarity, 2 GHz resolution, and low mass (1700) mode and allowed to equilibrate for 30 minutes. The instrument is then calibrated, switched to acquisition mode and the appropriate method loaded.
# After another 30 minute equilibration time, a blank batch (i.e., buffer) is run to ensure equipment is operating properly. The samples are thawed at 37° C. for 10 minutes, briefly centrifuged, and transfer to the bench top. Wells A1 and H12 are spiked with 1 μL 500 μM internal standard peptide, and the plates centrifuged at 2000×g for 5 minutes. The method is then run and masses of each individual well recorded.
# The masses (for which integration data is desired) for each well are pasted into the platemap and exported from the analysis. Masses for the internal standards are exported as well. The data at 50 ppm is extracted for the +19 charge state, and identity of well A1 is assigned using the internal standard spike and integrated. Peak data is exported as a TOF list and the above steps are repeated individually, for the +20, 21, 22, 23, 24, and 25 charge states.
# T1 sequence (P01116 1-169 isoform P01116-2 G12C): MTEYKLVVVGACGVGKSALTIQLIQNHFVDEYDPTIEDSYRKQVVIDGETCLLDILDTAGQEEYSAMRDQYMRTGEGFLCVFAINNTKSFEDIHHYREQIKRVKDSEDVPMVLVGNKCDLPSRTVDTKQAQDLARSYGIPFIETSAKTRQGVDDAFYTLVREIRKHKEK
row,Structure (SMILES),Binding %
1,"C=CC(=O)N1CCN(c2ncc3cccc(-c4ccccc4Cl)c3n2)CC1 [Compound I-35, 1-(4-(8-(2-chlorophenyl)quinazolin-2-yl)piperazin-1-yl)prop-2-en-1-one]",+ (+indicates binding activity from 5% to 25%)
2,"C=CC(=O)N1CCN(c2ccnc3cc(Cl)c(-c4ccccc4Cl)cc23)CC1 [Compound I-27, 1-(4-(7-chloro-6-(2-chlorophenyl)quinolin-4-yl)piperazin-1-yl)prop-2-en-1-one]",++ (++indicates binding activity greater than 25% and up to 50%)
3,"C=CC(=O)N1CCN(c2ncnc3cc(Cl)c(-c4ccc(Cl)cc4OC)cc23)CC1 [Compound I-13, 1-(4-(7-chloro-6-(4-chloro-2-methoxyphenyl)quinoazlin-4-yl)piperazin-1-yl)prop-2-en-1-one]",++ (++indicates binding activity greater than 25% and up to 50%)

# Same assay, conditions: compounds 48-246, measured at 2 h
row,Structure (SMILES),Binding %
1,"C=CC(=O)N1CCN(c2ncnc3cc(-c4ccccc4C4(C)CC4)c(Cl)cc23)CC1 [Compound I-222, 1-(4-(6-chloro-7-(2-(1-methylcyclopropyl)phenyl)quinazolin-4-yl)piperazin-1-yl)prop-2-en-1-one]",+++ (+++indicates binding activity greater than 50% and up to 75%)
2,"C=CC(=O)N1CCN(c2ncnc3cc(C4CC4)c(Cl)cc23)CC1 [Compound I-68, 1-(4-(6-chloro-7-cyclopropylquinazolin-4-yl)piperazin-1-yl)prop-2-en-1-one]",+ (+indicates binding activity from 5% to 25%)
3,"C=CC(=O)N1CCN(c2ncnc3cc(-c4ccccc4C(N)=O)c(C(F)(F)F)cc23)CC1 [Compound I-211, 2-(4-(4-acryloylpiperazin-1-yl)-6-(trifluoromethyl)quinazolin-7-yl)benzamide]",+ (+indicates binding activity from 5% to 25%)
4,"C=CC(=O)N1CCN(c2ncnc3cc(Cl)c(Br)cc23)CC1C#N (stereo not shown) [Compound I-49, 1-acryloyl-4-(6-bromo-7-chloroquinazolin-4-yl)piperazine-2-carbonitrile]",++++ (++++indicates binding activity greater than 75%)
5,"C=CC(=O)N1CCN(c2ncnc3cc(-c4cc(NC)ccc4C)c(Cl)cc23)CC1 [Compound I-191, 1-(4-(6-chloro-7-(2-methyl-5-(methylamino)phenyl)quinazolin-4-yl)piperazin-1-yl)prop-2-en-1-one]",+++ (+++indicates binding activity greater than 50% and up to 75%)
6,"C=CC(=O)N1CCN(c2ncnc3cc(-n4cc(Cl)ccc4=O)c(Cl)cc23)CC1 [Compound I-177, 1-(4-(4-acryloylpiperazin-1-yl)-6-chloroquinazolin-7-yl)-5-chloropyridin-2(1H)-one]",+ (+indicates binding activity from 5% to 25%)
7,"C=CC(=O)N1CCN(c2ncnc3cc(-c4nn(C)c5ccccc45)c(Cl)cc23)CC1 [Compound I-226, 1-(4-(6-chloro-7-(1-methyl-1H-indazol-3-yl)quinazolin-4-yl)piperazin-1-yl)prop-2-en-1-one]",+ (+indicates binding activity from 5% to 25%)
8,"C=CC(=O)N1CCN(c2ncnc3cc(-c4ccccc4O)c(Cl)cc23)CC1C#N (stereo not shown) [Compound I-146, 1-acryloyl-4-(6-chloro-7-(2-hydroxyphenyl)quinazolin-4-yl)piperazine-2-carbonitrile]",++++ (++++indicates binding activity greater than 75%)

# Same assay, conditions: compounds 247-342, measured at 30 min
row,Structure (SMILES),Binding %
1,"C=CC(=O)N1CCN(c2ncnc3cc(-c4cc(C(C)(C)O)ccc4F)c(Cl)cc23)CC1 [Compound I-267, 1-(4-(6-chloro-7-(2-fluoro-5-(2-hydroxypropan-2-yl)phenyl)quinazolin-4-yl)piperazin-1-yl)prop-2-en-1-one]",+ (+indicates binding activity from 5% to 25%)
2,C=CC(=O)N1CCN(c2ncnc3c(F)c(-c4ccc(F)cc4F)c(F)cc23)CC1 [Compound 296],+ (+indicates binding activity from 5% to 25%)
